Experimental data reported in paper PMC7459852, “Identification of 6-(piperazin-1-yl)-1,3,5-triazine as a chemical scaffold with broad anti-schistosomal activities” (Wellcome Open Research, 2020).

Test system: S. mansoni adult worms
Experiment: Scanning electron microscopy of compound damage on adult worms
Assay type: cell-based, Schistosoma mansoni
Conditions: 12.50 µM (sub-lethal), 72 h
Method: Following 72 h of drug treatment, the cultured S. mansoni adult worms were collected, separated by sex and relaxed with tricaine anaesthetic solution (0.25% w/v of ethyl 3-aminobenzoate methane sulfonate - Tricaine, E10521, Sigma Aldrich - in DMEM). The samples were incubated by gently rocking for 15 min or until parasites relaxed and separated. The parasites were then killed by incubation in a solution of […] magnesium chloride (MgCl 2) for 1 min. Afterwards, adult schistosome worms were briefly washed with pre-warmed 1X PBS and then fixed using appropriate solutions for analysis by scanning electron microscopy (SEM) as previously described in literature, [61], [62].
Post fixation, adult schistosomes were stored at 4°C until washing with 0.1 M sodium cacodylate was performed (2 x 30 min each). The worms were then stained with 1% v/v osmium tetroxide water solution (stored at -20°C and pre-warmed at room temperature prior to use) for 2 h and then washed with 0.1 M sodium cacodylate for 30 min. Following staining, worms were dehydrated with an aqueous alcohol series (30, 50, 70, 95 and 100% ethanol in ultra-pure water) by agitating gently on a rocker for 30 min per solution. At the final step, the samples were left in 100% ethanol overnight before being dried with hexamethyldisilazane critical drying point agent (AGR1228, Agar Scientific, Stansted, UK) for at least 3 h. […]

SMILES: c1ccc(Nc2nc(N3CCCC3)nc(N3CCNCC3)n2)cc1 [Compound 7]
- morphological changes of adult worms by SEM: partial loss of tubercles and spines as well as tegument erosion
